The test system of one assay is CEM/TK- (Homo sapiens). Put plainly: Cytotoxic concentration required to reduce viability of uninfected cells in CEM/TK cell line.
Assay [1] deals with Human immunodeficiency virus 1. The assay can be described thus: Effective concentration required to inhibit HIV-1 replication in CEM-SS cell line. Type of assay: functional, organism-based. Conditions: Human immunodeficiency virus 1, CEM-SS.
Assay [2] has as its system Human immunodeficiency virus 1. The assay can be described thus: Effective concentration required to inhibit HIV-1 replication in MT-4 cell line. To be noted: Human immunodeficiency virus 1, MT4. Type of assay: functional, organism-based.
The next assay has as its system MT4. The assay can be described thus: Cytotoxic concentration required to reduce viability of uninfected cells in MT-4 cell line. It counts as functional. To be noted: Homo sapiens.
The subject of assay [3] is Human immunodeficiency virus 1. Put plainly: Effective concentration required to inhibit HIV-1 replication in CEM/TK cell line. Type of assay: functional, organism-based. To be noted: Human immunodeficiency virus 1, CEM-TK(-).
The next assay deals with CEM-SS. Put plainly: Cytotoxic concentration required to reduce viability of uninfected cells in CEM-SS cell line. It counts as functional. Conditions: Homo sapiens.
Another assay relates to CEM-TK(-) (Homo sapiens). Put plainly: Compound was tested for its cytotoxic concentration required to reduce viability of uninfected cells in CEM/TK(-) cell line.

As to `Cc1cn(C2CC(N=[N+]=[N-])C(COP(=O)(OCCSC(=O)C(C)(C)C)N3CCCCC3)O2)c(=O)[nH]c1=O` (stereo not given), the CC50 with CEM/TK- (Homo sapiens), in the assay with MT4 and in the assay on CEM-SS was greater than 100000 nM each time. Moreover, the EC50 (in general, the concentration that produces a half-maximal response) in assay [1] was 20 nM; in assay [2], 220 nM; in assay [3], 5200 nM.

As for `COC(=O)[C@H](C)NP(=O)(OCCSC(=O)C(C)(C)C)OCC1OC(n2cc(C)c(=O)[nH]c2=O)CC1N=[N+]=[N-]` (stereo not given in full), the CC50 with CEM/TK- (Homo sapiens), in the assay on MT4 and in the assay with CEM-SS was greater than 100000 nM throughout. Besides, the EC50 in assay [1] was 54 nM; in assay [2], 340 nM; in assay [3], 4300 nM.

Turning to `Cc1cn(C2CC(N=[N+]=[N-])C(COP(=O)(Nc3ccccc3)OCCSC(=O)C(C)(C)C)O2)c(=O)[nH]c1=O` (stereo not given), the CC50 with CEM/TK- (Homo sapiens), in the assay with MT4 and in the assay with CEM-SS was greater than 10000 nM each time. Besides, the EC50 in assay [1] was 5 nM; in assay [2], 700 nM; in assay [3], greater than 10000 nM.

Take `COC(=O)C(C)NP(=O)(OCCSC(=O)C(C)(C)C)OCC1OC(n2cc(C)c(=O)[nH]c2=O)CC1N=[N+]=[N-]` (stereo not given): the CC50 with CEM/TK- (Homo sapiens), in the assay with MT4 and in the assay on CEM-SS was greater than 100000 nM throughout. The concentration giving a half-maximal response (EC50) is 20 nM in assay [1], 420 nM in assay [2] and 2100 nM in assay [3].

For `COC(=O)[C@H](Cc1ccc(O)cc1)NP(=O)(OCCSC(=O)C(C)(C)C)OCC1OC(n2cc(C)c(=O)[nH]c2=O)CC1N=[N+]=[N-]` (stereo not given in full), the CC50 in the assay with CEM/TK- (Homo sapiens), in the assay with MT4 and in the assay on CEM-SS was greater than 100000 nM each time. The EC50 in assay [1] is 90 nM; in assay [2], 740 nM; in assay [3] it was 5300 nM.

In the case of `COC(=O)C(C)(C)NP(=O)(OCCSC(=O)C(C)(C)C)OCC1OC(n2cc(C)c(=O)[nH]c2=O)CC1N=[N+]=[N-]` (stereo not given), the EC50 in assay [1] was found to be 80 nM; in assay [2], 540 nM; in assay [3], 2900 nM. Also, the CC50 in the assay on CEM-TK(-) (Homo sapiens), in the assay with MT4 and with CEM-SS was greater than 100000 nM each time.

In the case of `Cc1cn(C2CC(N=[N+]=[N-])C(COP(=O)(NC(C)C)OCCSC(=O)C(C)(C)C)O2)c(=O)[nH]c1=O` (stereo not given), the CC50 in the assay on CEM/TK- (Homo sapiens), with MT4 and in the assay with CEM-SS was greater than 100000 nM in each case. Besides, the EC50 amounted to 20 nM in assay [1], 130 nM in assay [2] and 750 nM in assay [3].

`COC(=O)[C@H](Cc1ccccc1)NP(=O)(OCCSC(=O)C(C)(C)C)OCC1OC(n2cc(C)c(=O)[nH]c2=O)CC1N=[N+]=[N-]` (stereo not given in full): the results for the half-maximal cytotoxic concentration (CC50) in the assay on CEM/TK- (Homo sapiens), with MT4 and with CEM-SS were greater than 10000 nM, greater than 10000 nM and greater than 100000 nM, respectively. Also, the EC50 in assay [1] turned out to be 27 nM; in assay [2] it was 250 nM; in assay [3], 2300 nM.

As for `COC(=O)[C@H](CO[Si](C)(C)C(C)(C)C)NP(=O)(OCCSC(=O)C(C)(C)C)OCC1OC(n2cc(C)c(=O)[nH]c2=O)CC1N=[N+]=[N-]` (stereo not given in full), the CC50 with CEM/TK- (Homo sapiens), with MT4 and in the assay with CEM-SS was greater than 10000 nM in each case. Besides, the EC50 was 100 nM in assay [1], 400 nM in assay [2] and 1000 nM in assay [3].

Regarding `COC(=O)[C@H](COC(C)=O)NP(=O)(OCCSC(=O)C(C)(C)C)OCC1OC(n2cc(C)c(=O)[nH]c2=O)CC1N=[N+]=[N-]` (stereo not given in full), the CC50 with CEM/TK- (Homo sapiens), with MT4 and in the assay on CEM-SS was greater than 100000 nM throughout. For the same molecule, the EC50 in assay [1] came to 7 nM; in assay [2], 53 nM; in assay [3], 16000 nM.

Turning to `COC(=O)[C@@H](C)NP(=O)(OCCSC(=O)C(C)(C)C)OCC1OC(n2cc(C)c(=O)[nH]c2=O)CC1N=[N+]=[N-]` (stereo not given in full), the CC50 with CEM/TK- (Homo sapiens), with MT4 and with CEM-SS was greater than 100000 nM each time. In addition, the EC50 in assay [1] amounted to 70 nM; in assay [2] it was 450 nM; in assay [3] it was 2400 nM.

As for `COC(=O)[C@H](C)NP(=O)(OC[C@H]1O[C@@H](n2cc(C)c(=O)[nH]c2=O)C[C@@H]1N=[N+]=[N-])Oc1ccccc1` (stereo not given in full), the CC50 (usually the concentration at which the toxic effect on the cells reaches its halfway point) in the assay on CEM/TK- (Homo sapiens) is greater than 100000 nM; in the assay with MT4, greater than 10000 nM; in the assay with CEM-SS it was greater than 100000 nM. The EC50 in assay [1] was determined as 50 nM; in assay [2], 340 nM; in assay [3], 4300 nM.

With `COC(=O)CNP(=O)(OCCSC(=O)C(C)(C)C)OCC1OC(n2cc(C)c(=O)[nH]c2=O)CC1N=[N+]=[N-]` (stereo not given), the CC50 in the assay with CEM/TK- (Homo sapiens), in the assay on MT4 and in the assay on CEM-SS was greater than 100000 nM throughout. Further, the EC50 in assay [1] was determined as 9 nM; in assay [2], 450 nM; in assay [3], 1400 nM.

For `CCC(NP(=O)(OCCSC(=O)C(C)(C)C)OCC1OC(n2cc(C)c(=O)[nH]c2=O)CC1N=[N+]=[N-])C(=O)OC` (stereo not given), the CC50 in the assay with CEM/TK- (Homo sapiens), in the assay with MT4 and with CEM-SS was greater than 100000 nM in each case. Besides, the values for the EC50 in assay [1], in assay [2] and in assay [3] were 6 nM, 130 nM and 2400 nM, respectively.

For the molecule `Cc1cn([C@H]2C[C@H](N=[N+]=[N-])[C@@H](CO)O2)c(=O)[nH]c1=O` [ZIDOVUDINE], the figures for the CC50 with CEM/TK- (Homo sapiens), with MT4 and in the assay with CEM-SS were greater than 100000 nM, 75000 nM and greater than 100000 nM, respectively. The EC50 in assay [1] was 6 nM; in assay [2] it was 17 nM; in assay [3] it was greater than 100000 nM.

Source of the values: ChEMBL document CHEMBL1145130, “S-acyl-2-thioethyl phosphoramidate diester derivatives as mononucleotide prodrugs” (J Med Chem, 2003).
